Test results as given in patent US9428447B2, “Bis-(aryl/heteroaryl)-methylene compounds, pharmaceutical compositions containing same and their use for treating cancer” (The Royal Institution For The Advancement of …, priority 2011, dated 2016).

Key:
[1] = tested on: 60 cell panel of human carcinoma cell lines; assay: National Cancer Institute 60 cell panel (overall); assay type: cell-based
IGROV1 = assay: NCI 60 cell panel: IGROV1; assay type: cell-based; conditions: Ovarian Cancer
SCC4 cells = assay: MTS cell proliferation assay, SCC4; assay type: cell-based, human; conditions: vitamin D resistant SCC4 cells; FIGS. 7c, 8 and 9
Source text: Dose-dependent effects of compounds on cell cycle progression was monitored using a CellTiter 96 Aqueous Non-Radioactive Cell Proliferation Assay Kit (Promega). The assay composed of solutions of a novel tetrazolium compound (MTS) and an electron coupling reagent (phenazine methosulfate; PMS). MTS is reduced by metabolically active cells into a soluble formazan product that absorbs at 490 nm. The quantity of formazan product absorbing at 490 nm is directly proportional to the number of living cells.

AT84 cells = assay: EdU cell growth assay, AT84
Procedure: (§1) EdU Cell Growth Assay. Click-iT EdU Alexa Fluor high-throughput imaging (HCS) assay for cell proliferation. HCS assays were performed on AT84 mouse squamous carcinoma cell line (ATCC) following the manufacturer's instruction (Molecular Probes, Invitrogen). […] All samples were in triplicate.

VDR = VDR (Homo sapiens (Human), UniProt P11473); assay: VDR agonism: induction of CYP24 gene expression in SCC25 cells (RT/PCR); assay type: cell-based
Procedure: RNA isolation and RT/PCR analysis. PCR primers against CYP24 (forward, 5',5'-[NT], reverse, 5'-[NT] designed using Primer3 software as described and used in […]-Mendoza, Quach, T., Dabbas, B., Hudon, J., Liao, X., Palijan, A., Gleason, J. L., and White, J. H. (2008) Incorporation of histone deacetylase inhibition into the structure of a nuclear receptor agonist. Proc. Nat. Acad. Sci. […] After treatment, cells were washed with PBS, homogenized with 1 ml TRIzol Reagent (Invitrogen, Carlsbad, Calif.), kept at room temperature for 2-5 min, collected and kept at -80° C. for at least 1 h. After, thawing 0.2 ml chloroform was added. After vigorous mixing and storing for 10 min, mixtures were centrifuged (10,000 rpm, 15 min, 4° C.) and the upper transparent layer was transferred to a new tube. 0.5 ml isopropanol was added and the new solution was mixed. After centrifuging at 4° C., the supernatant was discarded and 1 ml of 75% ethanol was added. After centrifuging and discarding the supernatant, the pellet was air-dried for 5-10 min, and then dissolved in ddH2O. RNA concentrations were measured using a spectrophotometer, and 1-3 μg of RNA were loaded for reverse transcriptase reactions (total volume: 20 μl). 80 μl of ddH2O was added to the RT-product, and 1.5 μl of that was used as template for the PCR reaction. Reverse transcriptase (Super Script II) was purchased from Invitrogen (Carlsbad, Calif.). DNA polymerase and dNTP's were ordered from Fermentas (Glen Burnie, Md.).

SCC25 cells = assay: EdU cell growth assay, SCC25
Procedure: as §1

Chain of VDR (P11473 whole entry): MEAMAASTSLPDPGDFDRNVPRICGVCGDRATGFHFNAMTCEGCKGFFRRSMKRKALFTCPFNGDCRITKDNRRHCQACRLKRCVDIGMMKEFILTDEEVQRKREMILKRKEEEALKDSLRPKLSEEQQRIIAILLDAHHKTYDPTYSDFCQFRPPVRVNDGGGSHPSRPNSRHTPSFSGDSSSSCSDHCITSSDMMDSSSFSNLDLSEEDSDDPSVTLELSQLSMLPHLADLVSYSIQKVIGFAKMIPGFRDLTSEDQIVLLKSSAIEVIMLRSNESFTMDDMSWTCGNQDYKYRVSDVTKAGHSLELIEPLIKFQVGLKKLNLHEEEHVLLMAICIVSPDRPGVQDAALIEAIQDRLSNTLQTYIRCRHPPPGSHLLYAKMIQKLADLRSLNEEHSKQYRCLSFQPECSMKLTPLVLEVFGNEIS

Compound: CCC(CC)(c1ccc(OCC(=O)NO)c(C)c1)c1ccc(OCC(O)C(C)(C)C)c(C)c1 (racemic) [JF-B01, N-Hydroxy-2-(4-(3-(4-(2-hydroxy-3,3-dimethylbutoxy)-3-methylphenyl)pentan-3-yl)-2-methylphenoxy)acetamide]
- antiproliferative activity in the 60 cell panel ([1]; all cell lines): displayed antiproliferative activity in all cell lines
- full growth inhibition concentration ([1]; melanoma cell lines, 8 out of 9 cell lines): ≤ 7 µM
- TGI (IGROV1): 5.25E−6
- antiproliferative potency (MTS) (SCC4 cells): low micromolar potency
- antiproliferative potency relative to 1,25D (fold less potent) (AT84 cells): 10 fold
- VDR agonist potency relative to 1,25D (fold lower) (VDR; FIG. 1b): approximately 10 fold
- VDR agonist potency relative to LG190178 (VDR; FIG. 1b): equal to or greater than that of LG190178
- VDR agonist activity/potency (CYP24 induction, dose response) (VDR; FIG. 1b, 1d): efficacious agonist
- induction of CYP24 by the compound blocked (consistent with binding to the VDR) (VDR; FIG. 1c): blocked
- VDR agonism by induction of CYP24 gene expression (screen) (VDR; test compounds 10 μM, FIG. 1a): showed any agonist activity against VDR
- antiproliferative potency relative to 1,25D (fold less potent) (SCC25 cells): 10 fold
